Values quoted from earlier work in US20050287177A1, “Pharmaceutical compositions” (Glaxo Group Unlimited and Smithkline Beecham Corp., priority 2002, published 2005).

Columns and labels:
[1] = colon versus small intestine
[2] = elimination

## Cc1cn([C@H]2C[C@H](N=[N+]=[N-])[C@@H](CO)O2)c(=O)[nH]c1=O [Zidovudine, 3′-azido-3′-deoxythymidine]
[1]
  colonic absorption: very low
[2]
  terminal half-life: 1.5 to 2 h
